Assay [1] in a line: DPPH radical scavenging activity. To be noted: samples at 100 μg/mL; 30 min at 30 °C; mean ± SE, n=3. As for the experimental part:
The ability of the extracts to scavenge free radicals was determined according to the method of Hosny, et al 2002 [24]. In a 96-well plate, 10 μL of each sample or standard dissolved in ethanol (100 μg/mL) was added to 190 μL of 316 μM/mL DPPH solution. A blank was prepared using ethanol. After incubation at 30 °C for 30 min, the absorbance of each solution was measured at 517 nm. DL-α-tocopherol and BHT were used as positive controls. […] All experiments were carried out in triplicate.
(In general: Loss of DPPH colour is used to gauge radical scavenging.)

Assay [2] deals with FeSO4/H2O2-stimulated lipid peroxidation (MDA production) in rat tissue homogenates. The experiment in a line: FeSO4/H2O2-stimulated lipid peroxidation (MDA production, TBARS) in rat tissue homogenates. To be noted: 200 μg/mL, mean ± SE, n=3; for Inhibition (%) Brain: rat brain homogenate; for Inhibition (%) Heart: rat heart homogenate; for Inhibition (%) Liver: rat liver homogenate. The class given is biochemical. As for the experimental part:
During aerobic incubation of the tissue homogenates, MDA released reacts with thiobarbituric acid (TBA) to give a pink colour. The capability of the samples to inhibit MDA formation is used as a measure of their antioxidant activity. […] The results were expressed as nanomoles of MDA equivalents per milligram of protein of rat (brain, heart and liver) homogenates. All measurements were done in triplicate. The capability to inhibit MDA formation was calculated using the following equation: Inhibition effects (%)=1-MDA in tissue homogenate with test extracts/MDA in tissue homogenate without test extracts×100

We go through two molecules from publication PMC3221499, “A New Flavonoid C-Glycoside from Celtis australis L. and Celtis occidentalis L. Leaves and Potential Antioxidant and Cytotoxic Activities” (Scientia Pharmaceutica, 2011).

The structures appear in SMILES notation.

In the case of `Cc1cc(C(C)(C)C)c(O)c(C(C)(C)C)c1` [BHT, butylated hydroxytoluene], the DPPH % inhibition in assay [1] worked out at 55.3 ± 1.50%. Moreover, in assay [2], the “Inhibition (%) Brain” value is recorded as 52.48 ± 1.72%, the “Inhibition (%) Heart” value is 43.23 ± 1.65% and the “Inhibition (%) Liver” value is on record as 53.20 ± 1.65%.
For `Cc1c(C)c2c(c(C)c1O)CC[C@@](C)(CCC[C@H](C)CCC[C@H](C)CCCC(C)C)O2` (racemic) [DL-α-tocopherol], in that order: 66.5 ± 2.75%, 62.90 ± 2.18%, 58.70 ± 1.80% and 71.10 ± 2.25%.
